Measurements published in patent publication US20040023803A1, “Method for producing a solid herbicide formulation” (priority 2000, published 2004).

Experiment: Storage stability test of solid formulations (14 days at 54° C., CIPAC MT 46; active ingredient and AMTT content by quantitative HPLC)
Type: physicochemical
Settings: for Preparation Concentration % by weight: zero value before storage; for Storage 14 days, 54° C. active ingredient content (rel.): relative to zero value
Method: The solid formulations prepared by the process according to the invention are storage-stable. In accordance with a storage test laid down by the authorization authorities, they are stored for 14 days at 54° C. […] The active ingredient content and the AMTT content of the formulations were each determined by means of quantitative HPLC. […] The samples were then analyzed and compared with the comparative value at the beginning of the storage (zero value). The active ingredient content is shown in each case as relative quantity based on the zero value (as a percentage). The storage experiments were carried out following the method CIPAC MT 46. The shelf life of a product is estimated by short-term storage at elevated temperature.

[1] = Table 2, Example 1 formulation, pH of the suspension 5.1
[2] = Table 2, Example 1 formulation, pH of the suspension 6
[3] = Table 2, Example 1 formulation, pH of the suspension 7
[4] = Table 2, Example 1 formulation, pH of the suspension 8
[5] = Table 2, Example 1 formulation, pH of the suspension 9
[6] = Table 3 (headed Example 3), tritosulfuron + flucarbazone-sodium formulation, pH of the suspension 6.5
[7] = Table 3 (headed Example 3), tritosulfuron + flucarbazone-sodium formulation, pH of the suspension 7.0
[8] = Table 4 (headed Example 4), tritosulfuron + dicamba formulation, pH of the suspension 6
[9] = Table 4 (headed Example 4), tritosulfuron + dicamba formulation, pH of the suspension 7
[10] = Table 4 (headed Example 4), tritosulfuron + dicamba formulation, pH of the suspension 8
[11] = Table 4 (headed Example 4), tritosulfuron + dicamba formulation, pH of the suspension 9

| Preparation Concentration % by weight [8] [% by weight] | Preparation Concentration % by weight [9] [% by weight] | Preparation Concentration % by weight [10] [% by weight] | Preparation Concentration % by weight [11] [% by weight] | Structure (SMILES) | Preparation Concentration % by weight [1] [% by weight] | Preparation Concentration % by weight [2] [% by weight] | Preparation Concentration % by weight [3] [% by weight] | Preparation Concentration % by weight [4] [% by weight] | Preparation Concentration % by weight [5] [% by weight] | Preparation Concentration % by weight [6] [% by weight] | Preparation Concentration % by weight [7] [% by weight] | Storage 14 days, 54° C. active ingredient content (rel.) [8] | Storage 14 days, 54° C. active ingredient content (rel.) [9] | Storage 14 days, 54° C. active ingredient content (rel.) [10] | Storage 14 days, 54° C. active ingredient content (rel.) [11] | Storage 14 days, 54° C. active ingredient content (rel.) [6] | Storage 14 days, 54° C. active ingredient content (rel.) [7] | also measured |
| --- | --- | --- | --- | --- | --- | --- | --- | --- | --- | --- | --- | --- | --- | --- | --- | --- | --- | --- |
| 0.009 | 0.007 | 0.007 | 0.006 | COc1nc(N)nc(C(F)(F)F)n1 [AMTT, 2-amino-4-methoxy-6-trifluoromethyltriazine] | 0.03 | 0.03 | 0.033 | 0.026 | 0.035 | 0.025 | 0.019 |  |  |  |  |  |  | Storage 14 days, 54° C. % by weight (AMTT content) [1]: 0.249 % by weight; Storage 14 days, 54° C. % by weight (AMTT content) [2]: 0.250 % by weight; Storage 14 days, 54° C. % by weight (AMTT content) [3]: 0.178 % by weight; Storage 14 days, 54° C. % by weight (AMTT content) [4]: 0.056 % by weight; Storage 14 days, 54° C. % by weight (AMTT content) [5]: 0.234 % by weight; Storage 14 days, 54° C. % by weight (AMTT content) [6]: 0.164 % by weight; Storage 14 days, 54° C. % by weight (AMTT content) [7]: 0.065 % by weight; Storage 14 days, 54° C. % by weight (AMTT content) [8]: 0.470 % by weight; Storage 14 days, 54° C. % by weight (AMTT content) [9]: 0.011 % by weight; Storage 14 days, 54° C. % by weight (AMTT content) [10]: 0.007 % by weight; Storage 14 days, 54° C. % by weight (AMTT content) [11]: 0.007 % by weight |
| 60.4 | 58.7 | 58.5 | 58.0 | COc1c(Cl)ccc(Cl)c1C(=O)O [dicamba] |  |  |  |  |  |  |  | 100 (rel.) % (rel.) | 100 (rel.) % (rel.) | 100 (rel.) % (rel.) | 101.9 (rel.) % (rel.) |  |  |  |
|  |  |  |  | COc1nn(C(=O)[N-]S(=O)(=O)c2ccccc2OC(F)(F)F)c(=O)n1C.[Na+] [flucarbazone-sodium] |  |  |  |  |  | 24.1 | 24.3 |  |  |  |  | 98.8 (rel.) % (rel.) | 99.5 (rel.) % (rel.) |  |

| Structure (SMILES) | Preparation Concentration % by weight [8] [% by weight] | Preparation Concentration % by weight [9] [% by weight] | Preparation Concentration % by weight [10] [% by weight] | Preparation Concentration % by weight [11] [% by weight] | Preparation Concentration % by weight [1] [% by weight] | Preparation Concentration % by weight [2] [% by weight] | Preparation Concentration % by weight [3] [% by weight] | Preparation Concentration % by weight [4] [% by weight] | Preparation Concentration % by weight [5] [% by weight] | Preparation Concentration % by weight [6] [% by weight] | Preparation Concentration % by weight [7] [% by weight] | Storage 14 days, 54° C. active ingredient content (rel.) [8] | Storage 14 days, 54° C. active ingredient content (rel.) [9] | Storage 14 days, 54° C. active ingredient content (rel.) [10] | Storage 14 days, 54° C. active ingredient content (rel.) [11] | Storage 14 days, 54° C. active ingredient content (rel.) [6] | Storage 14 days, 54° C. active ingredient content (rel.) [7] | also measured |
| --- | --- | --- | --- | --- | --- | --- | --- | --- | --- | --- | --- | --- | --- | --- | --- | --- | --- | --- |
| COc1nc(NC(=O)NS(=O)(=O)c2ccccc2C(F)(F)F)nc(C(F)(F)F)n1 [tritosulfuron, N[[[4-methoxy-6-(trifluoromethyl)-1,3,5-triazin-2-yl]amino]carbonyl]-2-(trifluoromethyl)benzenesulfonamide] | 11.9 | 11.9 | 11.3 | 10.4 | 74.2 | 72.3 | 71.7 | 67.5 | 72.4 | 40.5 | 41.1 | 91.3 (rel.) % (rel.) | 99.7 (rel.) % (rel.) | 98.8 (rel.) % (rel.) | 102.6 (rel.) % (rel.) | 98.8 (rel.) % (rel.) | 100 (rel.) % (rel.) | Storage 14 days, 54° C. active ingredient content (rel.) [1]: 99.3 (rel.) % (rel.); Storage 14 days, 54° C. active ingredient content (rel.) [2]: 99.9 (rel.) % (rel.); Storage 14 days, 54° C. active ingredient content (rel.) [3]: 100.8 (rel.) % (rel.); Storage 14 days, 54° C. active ingredient content (rel.) [4]: 100.5 (rel.) % (rel.); Storage 14 days, 54° C. active ingredient content (rel.) [5]: 97.7 (rel.) % (rel.) |
